# Test system: Sclerotinia sclerotiorum
# Test: Controlling test against Sclerotinia sclerotiorum on cucumber by foliage spraying (Test Example 1)
# Assay type: in vivo
# Details: single compound, 12° C. and high humidity for 6 days
# Description: A sand loam was filled into a plastic pot, and cucumber (Sagamihanjiro) was seeded, and grown in a greenhouse for 12 days. A flowable of the compound I, and an emulsifiable concentrate of any one of the compound II to the compound IV were diluted with water separately, and they were tank-mixed to prepare a tank mix solution containing the compound I and any one of the compounds II to IV at predetermined concentrations. The tank mix solution was subjected to foliage spraying so that it was sufficiently adhered to a leaf surface of the cucumber. After spraying, the plant was air-dried, and a PDA medium containing hyphae of Sclerotinia sclerotiorum was placed on the cucumber leaf surface. After seeding, this was placed under 12° C. and high humidity for 6 days, the controlling effect was investigated. Separately, for comparison, a flowable of the compound I, or an emulsifiable concentrate of any one compound of the compound II to the compound IV was diluted with water to prepare a water-diluted solution containing the predetermined amount of any one of compounds I to IV, and the similar controlling test was carried out. Further, for calculating an effective value, an onset area rate (ratio of onset area occupied in leaf area examined) in each treatment group was determined. The effective value was calculated by the Equation 1. […] A: Onset area rate of non-treated group B: Onset area rate of treated group In general, a effective value expected in treatment by mixing given two kinds of active ingredient compounds, i.e., an expected effective value is calculated by a Colby calculation equation of the Equation 2. E=X+Y−(X×Y)/100 “Equation 2” X: Effective value obtained by treatment with M ppm of the compound I Y: Effective value obtained by treatment with N ppm of the compound II, III or IV E: Effective value expected in treatment with M ppm of the compound I and N ppm of the compound II, III or IV (expected effective value) In addition, a synergistic effect was shown herein by a value calculated by the following Equation 3.
# [1] = active ingredient concentration 3.1 ppm
SMILES,Actual effective value [1],Actual effective value (active ingredient concentration 0.8 ppm)
C=CCSC(=O)n1c(N)c(-c2ccccc2C)c(=O)n1C(C)C [Compound I],58%,–
"CC1(C)CCC(Cc2ccc(Cl)cc2)C1(O)Cn1cncn1 (stereo not drawn) [Compound II, (1RS,5RS;1RS,5SR)-5-(4-chlorobenzyl)-2,2-dimethyl-1-(1H-1,2,4-triazol-1-ylmethyl)cyclopentanol]",5%,0%
"Clc1ccc(C2(Cn3cncn3)CC(Br)CO2)c(Cl)c1 (stereo not drawn) [Compound III, 1-[(2RS,4RS:2RS,4SR)-4-bromo-2-(2,4-dichlorophenyl)tetrahydrofurfuryl]-1H-1,2,4-triazole]",1%,–
"Fc1ccc([C@]2(Cn3cncn3)O[C@H]2c2ccccc2Cl)cc1 (racemic) [Compound IV, (2RS,3SR)-1-[3-(2-chlorophenyl)-2,3-epoxy-2-(4-fluorophenyl)propyl]-1H-1,2,4-triazole]",6%,–

# Source: patent publication US8883835B2, “Plant disease controlling composition and method for controlling plant disease” (priority 2008, dated 2014)
